# Experimental data published in paper PMC10215804, “Exploring Alternative Pathways to Target Bacterial Type II Topoisomerases Using NBTI Antibacterials: Beyond Halogen-Bonding Interactions” (Antibiotics, 2023).
# Read-outs that look alike come from different tables or passages of the source.
# What was measured:
# S. aureus DNA gyrase [1] = target: T1, S. aureus DNA gyrase (Staphylococcus aureus, UniProt P20831); details: supercoiling inhibition; cited from earlier work
# T1 construct: purchased Inspiralis (Norwich, UK)
# T1 sequence (P20831 whole entry): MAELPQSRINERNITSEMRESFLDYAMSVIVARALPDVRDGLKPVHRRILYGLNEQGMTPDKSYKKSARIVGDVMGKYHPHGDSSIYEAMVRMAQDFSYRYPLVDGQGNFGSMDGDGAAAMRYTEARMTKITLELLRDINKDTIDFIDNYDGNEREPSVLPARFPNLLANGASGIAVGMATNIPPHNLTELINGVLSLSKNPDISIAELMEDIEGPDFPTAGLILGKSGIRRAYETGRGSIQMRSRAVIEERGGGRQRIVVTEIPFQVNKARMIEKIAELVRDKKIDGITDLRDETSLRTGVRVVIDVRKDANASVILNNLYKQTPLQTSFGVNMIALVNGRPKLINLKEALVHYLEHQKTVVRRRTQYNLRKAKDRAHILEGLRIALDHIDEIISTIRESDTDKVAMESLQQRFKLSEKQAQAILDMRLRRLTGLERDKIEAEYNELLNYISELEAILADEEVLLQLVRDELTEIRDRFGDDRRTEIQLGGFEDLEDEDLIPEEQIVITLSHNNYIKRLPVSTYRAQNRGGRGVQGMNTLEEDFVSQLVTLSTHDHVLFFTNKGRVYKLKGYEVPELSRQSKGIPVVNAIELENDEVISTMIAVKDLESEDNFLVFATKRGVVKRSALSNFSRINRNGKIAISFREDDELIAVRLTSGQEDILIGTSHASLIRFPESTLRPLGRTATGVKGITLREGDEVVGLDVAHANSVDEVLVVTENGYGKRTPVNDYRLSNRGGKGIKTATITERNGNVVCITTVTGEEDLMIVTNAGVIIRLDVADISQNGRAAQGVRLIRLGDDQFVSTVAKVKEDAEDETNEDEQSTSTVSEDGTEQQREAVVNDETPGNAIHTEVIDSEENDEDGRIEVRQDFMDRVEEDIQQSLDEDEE
# T1 sequence (P0A0K8 whole entry partner): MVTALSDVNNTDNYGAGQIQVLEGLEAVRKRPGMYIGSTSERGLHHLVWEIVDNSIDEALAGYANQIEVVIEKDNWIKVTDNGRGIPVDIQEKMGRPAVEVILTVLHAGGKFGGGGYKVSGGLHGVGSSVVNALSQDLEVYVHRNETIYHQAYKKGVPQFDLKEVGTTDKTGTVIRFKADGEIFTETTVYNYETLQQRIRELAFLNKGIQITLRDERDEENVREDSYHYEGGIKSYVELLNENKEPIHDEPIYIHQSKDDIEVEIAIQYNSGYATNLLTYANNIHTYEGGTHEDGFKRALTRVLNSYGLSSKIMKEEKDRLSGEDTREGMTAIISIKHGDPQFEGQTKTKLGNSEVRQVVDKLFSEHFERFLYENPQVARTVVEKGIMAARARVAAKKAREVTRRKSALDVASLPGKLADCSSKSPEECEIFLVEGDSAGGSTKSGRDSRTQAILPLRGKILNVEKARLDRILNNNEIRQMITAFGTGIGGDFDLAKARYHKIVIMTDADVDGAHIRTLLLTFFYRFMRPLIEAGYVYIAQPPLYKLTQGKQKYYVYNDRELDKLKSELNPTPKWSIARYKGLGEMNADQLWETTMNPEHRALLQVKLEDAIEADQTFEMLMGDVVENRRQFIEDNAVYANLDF
# human topoisomerase IIα [2] = target: T2, human topoisomerase IIα (Homo sapiens, UniProt P11388); details: residual activity at 100 µM compound; cited from earlier work
# T2 construct: purchased Inspiralis (Norwich, UK)
# T2 sequence (P11388 whole entry): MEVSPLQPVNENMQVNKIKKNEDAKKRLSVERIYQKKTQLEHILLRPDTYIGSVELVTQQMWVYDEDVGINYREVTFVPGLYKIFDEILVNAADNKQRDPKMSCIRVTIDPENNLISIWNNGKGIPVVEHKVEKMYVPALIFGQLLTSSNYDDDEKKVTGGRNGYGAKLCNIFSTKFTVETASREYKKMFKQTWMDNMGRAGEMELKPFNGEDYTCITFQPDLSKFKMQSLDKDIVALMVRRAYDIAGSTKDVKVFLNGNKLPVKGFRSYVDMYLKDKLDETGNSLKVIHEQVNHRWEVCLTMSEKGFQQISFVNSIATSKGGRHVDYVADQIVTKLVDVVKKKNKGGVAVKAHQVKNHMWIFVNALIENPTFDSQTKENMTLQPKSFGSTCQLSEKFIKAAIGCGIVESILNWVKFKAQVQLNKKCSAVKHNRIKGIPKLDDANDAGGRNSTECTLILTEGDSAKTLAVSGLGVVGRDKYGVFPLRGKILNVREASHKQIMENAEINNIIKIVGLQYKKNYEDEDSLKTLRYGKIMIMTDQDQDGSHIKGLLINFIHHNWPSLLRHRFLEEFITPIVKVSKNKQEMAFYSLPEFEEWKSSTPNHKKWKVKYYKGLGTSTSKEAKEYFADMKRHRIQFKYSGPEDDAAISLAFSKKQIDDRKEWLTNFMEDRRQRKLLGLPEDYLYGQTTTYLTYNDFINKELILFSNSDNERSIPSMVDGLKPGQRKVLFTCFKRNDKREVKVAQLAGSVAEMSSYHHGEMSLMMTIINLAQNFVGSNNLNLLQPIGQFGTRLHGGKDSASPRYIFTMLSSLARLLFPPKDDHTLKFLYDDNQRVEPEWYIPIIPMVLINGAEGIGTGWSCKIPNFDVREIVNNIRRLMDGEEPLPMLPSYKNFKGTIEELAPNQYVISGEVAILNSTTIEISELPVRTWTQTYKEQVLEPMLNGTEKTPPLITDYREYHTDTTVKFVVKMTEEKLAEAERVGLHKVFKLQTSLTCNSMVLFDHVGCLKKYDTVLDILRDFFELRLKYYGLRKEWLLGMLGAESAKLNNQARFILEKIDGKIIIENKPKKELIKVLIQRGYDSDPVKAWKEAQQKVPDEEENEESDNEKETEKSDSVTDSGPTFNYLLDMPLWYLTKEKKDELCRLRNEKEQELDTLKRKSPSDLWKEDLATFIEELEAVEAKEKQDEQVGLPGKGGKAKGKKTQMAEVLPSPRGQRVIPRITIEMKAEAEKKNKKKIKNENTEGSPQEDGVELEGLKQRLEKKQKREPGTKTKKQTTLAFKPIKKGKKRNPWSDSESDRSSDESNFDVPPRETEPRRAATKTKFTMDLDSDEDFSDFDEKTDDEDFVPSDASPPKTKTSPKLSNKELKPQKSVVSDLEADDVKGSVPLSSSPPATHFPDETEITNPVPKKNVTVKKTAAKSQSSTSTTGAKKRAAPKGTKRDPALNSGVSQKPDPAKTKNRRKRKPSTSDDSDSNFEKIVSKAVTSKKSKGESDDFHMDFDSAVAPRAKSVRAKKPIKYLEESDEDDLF
# S. aureus (ATCC 29213) [3] = details: cited from earlier work
# MRSA (QA-11.7) [4] = details: cited from earlier work
# E. coli (ATCC 25922) [5] = details: cited from earlier work
# E. coli D22 [6] = details: lpxC mutation; cited from earlier work
# E. coli N43 (CGSC# 5583) [7] = details: AcrA knockout; cited from earlier work
# P. aeruginosa RDK 184 [8] = details: cited from earlier work
# E. faecalis RDK 057 [9] = details: cited from earlier work
# VRE [10] = details: cited from earlier work
# S. aureus DNA gyrase [11] = target: T1, S. aureus DNA gyrase; test: biochemical; details: supercoiling inhibition; mean of two independent measurements ± SD
# Procedure: (§1) To determine the IC50 values of the compounds for S. aureus and E. coli, a DNA gyrase supercoiling high-throughput plate assay and a topoIV relaxation high-throughput plate assay were performed. Assay kits and black streptavidin-coated 96-well microtiter plates are available from Inspiralis (Norwich, UK). For pre-screening, an inhibitor concentration of 100 μM was used. […] A nonlinear regression-based fit of the inhibition curves was used, with the log [inhibitor] versus slope of the reaction variables (four parameters) and a symmetric equation. […] To determine IC50 values, two independent repetitions were performed and the average was calculated.
# S. aureus topoIV = target: T3, S. aureus topoIV (Staphylococcus aureus, UniProt P0C1U9); test: biochemical; details: relaxation inhibition; mean of two independent measurements ± SD
# T3 construct: purchased Inspiralis (Norwich, UK)
# Procedure: as §1
# E. coli DNA gyrase = target: T4, E. coli DNA gyrase (Escherichia coli, UniProt P0AES4); test: DNA gyrase supercoiling inhibition assay (high-throughput plate assay); format: biochemical
# T4 construct: purchased Inspiralis (Norwich, UK)
# Procedure: as §1
# E. coli topoIV = target: T5, E. coli topoIV (Escherichia coli, UniProt P0AFI2); test: topoIV relaxation inhibition assay (high-throughput plate assay); format: biochemical
# T5 construct: purchased Inspiralis (Norwich, UK)
# T5 sequence (P20083 whole entry): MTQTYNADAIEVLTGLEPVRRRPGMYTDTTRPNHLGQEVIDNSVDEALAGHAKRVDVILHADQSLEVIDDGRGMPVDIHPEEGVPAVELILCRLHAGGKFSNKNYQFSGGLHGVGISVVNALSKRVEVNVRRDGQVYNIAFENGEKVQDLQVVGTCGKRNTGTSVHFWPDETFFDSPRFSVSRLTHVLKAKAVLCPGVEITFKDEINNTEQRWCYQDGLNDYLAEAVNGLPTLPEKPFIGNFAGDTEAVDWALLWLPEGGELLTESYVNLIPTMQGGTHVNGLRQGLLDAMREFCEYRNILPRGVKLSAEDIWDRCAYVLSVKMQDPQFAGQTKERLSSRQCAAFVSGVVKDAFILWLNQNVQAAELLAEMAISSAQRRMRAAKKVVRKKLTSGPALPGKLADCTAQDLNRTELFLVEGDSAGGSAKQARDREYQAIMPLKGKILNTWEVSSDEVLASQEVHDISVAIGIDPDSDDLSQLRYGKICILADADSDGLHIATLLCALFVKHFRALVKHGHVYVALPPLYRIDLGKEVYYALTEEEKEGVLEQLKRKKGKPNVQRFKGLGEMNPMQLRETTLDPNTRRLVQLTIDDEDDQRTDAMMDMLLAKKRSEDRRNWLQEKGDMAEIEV
# T5 sequence (P0AFI2 whole entry): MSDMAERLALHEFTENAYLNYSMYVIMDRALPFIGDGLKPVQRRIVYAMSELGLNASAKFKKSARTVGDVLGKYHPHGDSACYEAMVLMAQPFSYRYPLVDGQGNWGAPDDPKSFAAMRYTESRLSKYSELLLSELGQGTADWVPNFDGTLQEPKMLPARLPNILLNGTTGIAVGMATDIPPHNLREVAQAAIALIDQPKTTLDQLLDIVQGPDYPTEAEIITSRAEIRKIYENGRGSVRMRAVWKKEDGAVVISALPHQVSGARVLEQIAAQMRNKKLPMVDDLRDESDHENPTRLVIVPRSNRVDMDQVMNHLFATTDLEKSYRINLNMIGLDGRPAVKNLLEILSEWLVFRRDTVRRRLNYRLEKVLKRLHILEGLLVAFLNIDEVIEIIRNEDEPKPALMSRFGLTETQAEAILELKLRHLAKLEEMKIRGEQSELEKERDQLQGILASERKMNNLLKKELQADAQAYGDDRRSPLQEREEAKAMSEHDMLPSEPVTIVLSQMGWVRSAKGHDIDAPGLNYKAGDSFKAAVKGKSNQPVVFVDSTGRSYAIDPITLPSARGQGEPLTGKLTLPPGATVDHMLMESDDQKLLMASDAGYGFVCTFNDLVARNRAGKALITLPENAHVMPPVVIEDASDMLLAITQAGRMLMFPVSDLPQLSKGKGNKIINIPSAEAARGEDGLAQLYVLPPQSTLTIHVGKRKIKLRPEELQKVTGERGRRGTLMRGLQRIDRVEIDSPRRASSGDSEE
# Procedure: as §1
# human topoisomerase IIα [12] = target: T2, human topoisomerase IIα; test: human topoisomerase II alpha relaxation high-throughput assay (selectivity); format: biochemical; details: residual activity at 100 µM compound; mean ± SD, two independent experiments; read-out: Human TopoIIα (% RA at 100 µM)
# Procedure: For selectivity determination, a human topoisomerase II alpha relaxation high-throughput assay was used. The assay kits and black streptavidin-coated 96-well microtiter plates are available from Inspiralis (Norwich, UK). Two independent measurements were performed with an inhibitory concentration of 100 µM. Raw data were calculated as the mean ± SD percentage of the residual enzyme activity.
# A. baumannii = test: MIC, broth microdilution; format: cell-based; details: Acinetobacter baumannii
# Procedure: (§2) For the determination of minimum inhibitory concentrations (MIC), the broth microdilution method was used in 96-well plate format, according to the guidelines of the Clinical and Laboratory Standards Institute and the recommendations of the European Committee on Antimicrobial Susceptibility Testing (EUCAST). The dilutions of the bacterial suspension of the specific bacterial strain, corresponding to the 0.5 McFarland turbidity standard, were prepared with […] Mueller–Hinton broth with TES (Thermo Fisher Scientific) to obtain an end inoculum of 10^5 CFU/mL. The compounds were dissolved in DMSO and mixed with the inoculum. […] The MIC was determined as the lowest concentration of antibiotic that prevented visible bacterial growth. Tetracycline was used as a positive control on each test plate.
# E. coli (ATCC 25922) [13] = test: MIC, broth microdilution; format: cell-based; details: Escherichia coli, ATCC25922
# Procedure: as §2
# E. coli D22 [14] = test: MIC, broth microdilution; format: cell-based; details: Escherichia coli, D22
# Procedure: as §2
# E. coli ESBL QA-11.3 = test: MIC, broth microdilution; format: cell-based; details: Escherichia coli, ESBLQA11.3
# Procedure: as §2
# E. coli N43 (CGSC# 5583) [15] = test: MIC, broth microdilution; format: cell-based; details: Escherichia coli
# Procedure: as §2
# E. faecalis RDK 057 [16] = test: MIC, broth microdilution; format: cell-based; details: Enterococcus faecalis, RDK057
# Procedure: as §2
# K. pneumoniae = test: MIC, broth microdilution; format: cell-based; details: Klebsiella pneumoniae
# Procedure: as §2
# P. aeruginosa RDK 184 [17] = test: MIC, broth microdilution; format: cell-based; details: Pseudomonas aeruginosa
# Procedure: as §2
# S. aureus (ATCC 29213) [18] = test: MIC, broth microdilution; format: cell-based; details: Staphylococcus aureus, ATCC29213
# Procedure: as §2
# VRE [19] = test: MIC, broth microdilution; format: cell-based; details: Enterococcus
# Procedure: as §2
# MRSA (QA-11.2) = test: MIC, broth microdilution; format: cell-based, S. aureus; details: Staphylococcus aureus
# Procedure: as §2
# MRSA (QA-11.7) [20] = test: MIC, broth microdilution; format: cell-based, S. aureus; details: Staphylococcus aureus
# Procedure: as §2
# MRSA(QA-12.1) = test: MIC, broth microdilution; format: cell-based, S. aureus; details: Staphylococcus aureus
# Procedure: as §2
# [21] = Metabolic activity assessment (cytotoxicity), CellTiter 96 Aqueous One; format: cell-based; details: human, HepG2 cells (ATCC HB-8065); 72 h treatment; means of three independent measurements ± SD
# Procedure: HUVEC (ATCC® CRL-1730™) and HepG2 (ATCC® HB-8065™) cell lines were cultured in Dulbecco’s Modified Eagle Medium (DMEM; Sigma-Aldrich, St. Louis, MO, USA) supplemented with 10% heat-deactivated FBS (Gibco, Grand Island, NE, USA), 2 mM L-glutamine, 100 U/mL penicillin, 100 μg/mL streptomycin (all from Sigma-Aldrich, St. Louis, MO, USA) in a humidified chamber at 37 °C and 5% CO2. The experiments were carried out on passages 4–7 for both cell lines. The tested compounds were dissolved in DMSO and further diluted in culture medium to a desired final concentration. The cells were then seeded into 96-well plates at 5 × 10^4 cells/mL (100 μL/well) or 8 × 10^4 cells/mL (100 μL/well) for HUVEC and HepG2, respectively. The cells were then incubated for 24 h to allow attachment onto the wells. The cells were treated with 1 μM and 50 μM of each compound of interest, or the corresponding vehicle as control. […] Their metabolic activity was assessed after 72 h treatment using a CellTiter 96 Aqueous One Solution Cell Proliferation Assay (Promega, Madison, WI, USA), in accordance with the manufacturer’s instructions. The absorbance was measured at 492 nm on an automated microplate reader, Tecan Spark (Tecan Group Ltd., Männedorf, CH, Switzerland). Data are presented as the percentage of metabolic activity of control cells stimulated with vehicle, or as an IC50 value (mean ± SD) from three independent experiments, each conducted in triplicate (for screening) or duplicate (for IC50 determination). IC50 values were calculated using a non-linear regression model and with Graph Pad Prism 9 software.
compound,measurement,setting,value
COc1ccc2nccc(CCN3CCC(NCc4ccc(Br)cc4)CC3)c2n1 [Compound 1],IC50,S. aureus DNA gyrase [1],26 ± 10 nM
same,Human TopoIIα (% RA at 100 µM),human topoisomerase IIα [2],98 ± 3%
same,MIC S. aureus (ATCC 29213),S. aureus (ATCC 29213) [3],0.125 µg/mL
same,MIC MRSA (QA-11.7),MRSA (QA-11.7) [4],0.5 µg/mL
same,MIC E. coli (ATCC 25922),E. coli (ATCC 25922) [5],2 µg/mL
same,MIC E. coli D22,E. coli D22 [6],0.125 µg/mL
same,MIC E. coli N43 (CGSC# 5583),E. coli N43 (CGSC# 5583) [7],0.125 µg/mL
same,MIC P. aeruginosa RDK 184,P. aeruginosa RDK 184 [8],128 µg/mL
same,MIC E. faecalis RDK 057,E. faecalis RDK 057 [9],0.5 µg/mL
same,MIC VRE,VRE [10],2 µg/mL
"COc1ccc2nccc(CCN3CCC(NCc4ccc(Br)c(C(F)(F)F)c4)CC3)c2n1 [Compound 12, N-(4-Bromo-3-(trifluoromethyl)benzyl)-1-(2-(6-methoxy-1,5-naphthyridin-4-yl)ethyl)piperidin-4-amine]",IC50,S. aureus DNA gyrase [11],62 nM
same,IC50,S. aureus topoIV,345 ± 25 nM
same,IC50,E. coli DNA gyrase,84 ± 20 nM
same,IC50,E. coli topoIV,23 ± 6 nM
same,remaining activity at 100 µM,human topoisomerase IIα [12],102%
same,MIC,"A. baumannii; Table S3, read-out: MIC (μM) A. baumannii",5.12 µM
same,MIC,A. baumannii; read-out: MIC A. baumannii,2 µg/mL
same,MIC,"E. coli (ATCC 25922) [13]; Table S3, read-out: MIC (μM) E. coli (ATCC 25922)",10.2 µM
same,MIC,E. coli (ATCC 25922) [13]; read-out: MIC E. coli (ATCC 25922),4 µg/mL
same,MIC,"E. coli D22 [14]; Table S3, lpxC mutation, read-out: MIC (μM) E. coli D22",0.64 µM
same,MIC,"E. coli D22 [14]; lpxC mutation that increases membrane permeability, read-out: MIC E. coli D22",0.25 µg/mL
same,MIC,"E. coli ESBL QA-11.3; Table S3, read-out: MIC (μM) E. coli ESBL QA:11.3",10.2 µM
same,MIC,E. coli ESBL QA-11.3; read-out: MIC E. coli ESBL QA-11.3,4 µg/mL
same,MIC,E. coli N43 (CGSC# 5583) [15]; read-out: MIC (μM) E. coli N43,0.161 µM
same,MIC,E. coli N43 (CGSC# 5583) [15]; read-out: MIC E. coli N43 (CGSC# 5583),0.063 µg/mL
same,MIC,"E. faecalis RDK 057 [16]; Table S3, read-out: MIC (μM) E. faecalis DRK 057",1.28 µM
same,MIC,E. faecalis RDK 057 [16]; read-out: MIC E. faecalis RDK 057,0.5 µg/mL
same,MIC,"K. pneumoniae; Table S3, read-out: MIC (μM) K. pneumoniae",41 µM
same,MIC,K. pneumoniae; read-out: MIC K. pneumoniae,16 µg/mL
same,MIC,"P. aeruginosa RDK 184 [17]; RDK184, 20 h, Table S3, read-out: MIC (μM) P. aeruginosa RDK 184",> 328 µM
same,MIC,"P. aeruginosa RDK 184 [17]; RDK184, read-out: MIC P. aeruginosa RDK 184",> 128 µg/mL
same,MIC,"S. aureus (ATCC 29213) [18]; Table S3, read-out: MIC (μM) S. aureus (ATCC 29213)",0.082 µM
same,MIC,S. aureus (ATCC 29213) [18]; read-out: MIC S. aureus (ATCC 29213),0.032 µg/mL
same,MIC,"VRE [19]; Table S3, read-out: MIC (μM) VRE",0.64 µM
same,MIC,VRE [19]; read-out: MIC VRE,0.25 µg/mL
same,MIC,MRSA (QA-11.2); read-out: MIC (μM) MRSA (QA-11.2),0.161 µM
same,MIC,MRSA (QA-11.2); read-out: MIC MRSA (QA-11.2),0.063 µg/mL
same,MIC,MRSA (QA-11.7) [20]; read-out: MIC (μM) MRSA (QA-11.7),0.161 µM
same,MIC,"MRSA (QA-11.7) [20]; strain resistant to cefoxitin, ciprofloxacin, clindamycin, erythromycin, tetracycline, thiamulin, trimethoprim, read-out: MIC MRSA (QA-11.7)",0.063 µg/mL
same,MIC,"MRSA(QA-12.1); Table S3, read-out: MIC (μM) MRSA(QA-12.1)",0.082 µM
same,MIC,"MRSA(QA-12.1); strain resistant to cefoxitin, gentamicin, kanamycin, rifampicin, streptomycin, sulfamethoxazole, tetracycline, read-out: MIC MRSA(QA-12.1)",0.032 µg/mL
same,IC50 at 72 h,[21],12 ± 1.86 µM
